Where two headings read alike, the source gives them in different places. A value given as a limit tells only on which side of the number the result lay.

The values that follow come from US4726941A, “Acylated cyanamide composition for treating ethanol ingestion” (Regents of the University of Minnesota, priority 1986, dated 1988).

Data set [1] has as its system AlDH. Briefly: Initial screen: elevation of blood acetaldehyde (AcH) after ethanol in rats, prodrug 1.0 mmol/kg ip. The class given is in vivo. The note with it: rat; for potency in elevating ethanol-derived blood AcH (in words): 3 hours post-drug; for duration of action / blood AcH at 16 hours (in words): 16 hours post-drug; for elevation of blood AcH over drug-free controls at 3 hours: ethanol 2 g/kg ip at 2 hours, sacrifice 3 hours post-drug; for elevation of blood AcH over controls at 16 hours: ethanol 2 g/kg ip at 15 hours, sacrifice 16 hours post-drug. Here is the method:
Compounds 1-11 were evaluated in rats for their ability to elevate and maintain blood acetaldehyde (AcH) levels following ethanol administration employing the methodology outlined in Table I.
1. Drug Dose: 1.0 mmol/kg (ip)
2. Animals: Male rats of Sprague-Dawley descent (BioLab, Inc., St. Paul, MN), weighing 185-225 g were used. Four animals were used for each drug administration protocol.
3. Timing: Animals were fasted beginning at 7:00 or 8:00 AM. One group of rats were administered the prodrug at 5:00 PM (zero time) and ethanol (2 g/kg, ip) at 8:00 AM (15 hours), and the animals were sacrificed at 9:00 AM (16 hours). A second set of rats received the prodrug at 6:30 AM (zero time) and ethanol at 8:30 AM (2 hours) and the animals were sacrificed at 9:30 AM (3 hours). Cyanamide treated animals (1.0 mmol/kg) served as positive control. Blood AcH levels were determined as described hereinbelow.
(§1) Blood AcH levels were measured 1 hour after ethanol (2 g/kg, ip) in treated and control animals essentially as described by Shirota et al., in J. Med Chem., 23, 669 (1980). The animal was stunned by a quick blow to the head and blood was immediately withdrawn by open chest cardiac puncture. Aliquots (0.2 ml) were placed in 20 ml serum vials containing 1.0 ml of 5 mM sodium azide (to minimize the artifactual generation of AcH from ethanol), and the vials immediately capped with a rubber septum, frozen on Dry Ice, and kept frozen at -20° C. until assayed. AcH was determined in duplicate by the head-space gas chromatographic procedure previously described by Nagasawa et al., in Life Sci., 20, 187 (1977), and quantitated using a standard curve based on standards with known concentrations of AcH.

In data set [2] the test system is aldehyde dehydrogenase (AlDH). Conditions: without enzymatic activation, cited from earlier work.
Data set [3] concerns AlDH. The data set can be described thus: Time course protocol (72 hour), oral: blood AcH after ethanol in rats. The class given is in vivo. The note with it: rat, 1.0 mmol/kg po, FIG. 6. Here is the method:
FIG. 6 is a graphic depiction of the effectiveness of palmitoylcyanamide and N-benzoyl-L-leucylcyanamide, administered orally, in elevating blood AcH following ethanol administration in rats over a 72 hour time course.
(§2) 1. Drug Dose: 0.5 mmol/kg (ip); 1.0 mmol/kg (po)
(§3) 2. Animals: Male rats of Sprague-Dawley descent (BioLab, Inc., St. Paul, MN), weighing 176-200 g were used. Two animals were used for each drug administration protocol.
(§4) 3. Timing: Overnight fasted animals were administered the prodrug at zero time, ethanol (2 g/kg, ip) at 1, 4, 11, 23, 35, 47 and 71 hours and sacrificed 1 hour subsequent to each ethanol administration. Cyanamide treated animals (1.0 mmol/kg) served as positive control.
as §1

For data set [4], the system named is AlDH. The data set can be described thus: Time course protocol (72 hour), ip: blood AcH after ethanol in rats. The class given is in vivo. Conditions: rat; for duration of blood AcH elevation over 72-hour time course (in words) / time at which blood AcH elevation reached maximum: FIG. 5 (0.5 mmol/kg); for time at which blood AcH elevation reached maximum: ethanol 2 g/kg ip 1 hour before sacrifice. Here is the method:
FIG. 5 is a graphic depiction of the effectiveness of four of the compositions of the invention in elevating blood AcH following ethanol administration in rats over a 72 hour time course (0.5 mmol/kg i.p. dose).
as §2, §3, §4, §1

The test system of data set [5] is aldehyde dehydrogenase (AlDH). The note with it: clinical use, background statement; cited from earlier work.
Data set [6] can be described thus: Stability of the purified compound on standing. The class given is physicochemical. Conditions: clear colorless liquid, storage at 5° C. As for the experimental part: n-Butyryl chloride (3.2 g, 3.12 ml, 0.030 mol) in 50 ml of freshly distilled dry THF was added drop-wise to a suspension of sodium cyanamide (5.76 g, 0.090 mol) in 100 ml of freshly distilled dry THF at ice bath temperature. The reaction was allowed to proceed at room temperature for 24 hours and then the mixture evaporated to dryness in vacuo. The resulting yellow solid residue was dissolved in distilled water (50 ml) and the alkaline solution was adjusted to pH 6.5 with 10% HCl. The mixture was then extracted with ethyl acetate (2×50 ml). […] TLC: Rf =0.6 in EtOAC/petroleum ether/AcOH (50:100:1), detected by UV quenching and orange color with ferricyanide spray reagent; IR (neat, cm^-1) 3100-3250 (NH), 2860-2960 (alkyl), 2260 (C≡N), 1725 (C=0); NMR (Silanor C, δ from TMS) 8.2-8.5 (broad, NH), 2.3-2.6 (t, --CH2 --CH2 --C=O), 1.5-1.9 (sextet, CH3 --CH2 --CH2 --), 0.8-1.1 (t, CH3 --CH2 --); CI--MS (NH 3 : positive) m/z (rel. intensity) 147 (12.6, [(M+1)+2NH3 ]), 130 (100.0) [(M+1)+NH3 ], 105 (5.2) [(M+1)+2NH3 --H2 NCN]; CI--MS (NH3 : negative) m/z (rel. intensity) 111 (100.0) [M-1], 68 (2.0) [(M-1)--CH3 CH2 CH2 ], 41 (16.7) [(M-1)--CH3 CH2 CH=C=O].

For data set [7] the following is noted: rat, within 6 hours; cited from earlier work.

As to `CC(C)(C)C(=O)NC#N` [Compound 3, Pivaloylcyanamide], in the data set with AlDH [1], the “potency in elevating ethanol-derived blood AcH (in words)” value (shortened to “potency”) is listed as “very potent” and the “duration of action / blood AcH at 16 hours (in words)” value (from here on “duration of action / blood AcH”) is “short acting”.
For the compound `CC(=O)NC#N.[Na]` [Compound 1, Sodium Acetylcyanamide], in the data set with AlDH [1], the “potency” value is “much weaker than cyanamide” and the “elevation of blood AcH over drug-free controls at 3 hours” value is on record as 25 fold.
As to `CC(=O)NC#N` [AC, acetylcyanamide], in data set [2], the “AlDH inhibitory activity in vitro” value is “devoid of AlDH inhibitory activity in vitro”.
As for `N#CNC(=O)[C@H](Cc1ccccc1)NC(=O)[C@@H]1CCC(=O)N1` [Compound 15, L-Pyroglutamyl-L-phenylalanylcyanamide], in the data set on AlDH [1], the “potency” value is “very potent inhibitor of AlDH in vivo” and the “elevation of blood AcH over drug-free controls at 3 hours” value is “more than 110 fold”.
For the compound `CC(C)C[C@H](NC(=O)c1ccccc1)C(=O)NC#N` [Compound 11, N-Benzoyl-L-leucylcyanamide], in the data set on AlDH [1], the “potency” value is recorded as “elevated blood AcH levels” and the “duration of action / blood AcH” value is “long-acting with significant levels of blood AcH present”. Moreover, in the data set on AlDH [3], the “time at which AcH levels once again increased” value came out at 24 h, the “time at which blood AcH fell back to control levels” value was “around 36 hours”, the “time of maximum AcH levels” value was determined as 2 h and the “time of trough of AcH levels” value came to 12 h. Also, the “duration of blood AcH elevation over 72-hour time course (in words)” value (“duration … over 72-hour time course (in words)” for short) with AlDH [4] was “continued to maintain elevated blood AcH even at 72 hours”. Also, the “initial blood AcH level at 2 hours compared with cyanamide” value with AlDH [4] (FIG. 5, 2 hours) was “less than cyanamide”.
As to `N#CNC(=O)c1ccccc1` [Compound 2, Benzoylcyanamide], the “elevation of blood AcH over controls at 16 hours” value in the data set with AlDH [1] is 10 fold.
As for `N#CNC(=O)CNC(=O)c1ccccc1.N#CNC(=O)CNC(=O)c1ccccc1` [Compound 10, N-Benzoylglycylcyanamide (Hippurylcyanamide)], in the data set on AlDH [1], the “potency” value is recorded as “less potent than N-benzoyl-L-leucylcyanamide (11)” and the “duration of action / blood AcH” value is “long-acting with significant levels of blood AcH present”. Also, the “duration … over 72-hour time course (in words)” value in the data set with AlDH [4] was “failed to maintain elevated blood AcH past 12 hours”.
`CCCCCCCCCCCCCCCC(=O)NC#N` [Compound 6, Palmitoylcyanamide]: in the data set with AlDH [1], the “potency” value is given as “almost as potent as cyanamide” and the “elevation of blood AcH over controls at 16 hours” value is on record as 100 fold. Besides, in the data set with AlDH [3], the “time at which AcH levels once again increased” value stood at 24 h, the “time at which blood AcH fell back to control levels” value is listed as “around 36 hours”, the “time of maximum AcH levels” value is 2 h and the “time of trough of AcH levels” value was 12 h. For the same compound, in the data set with AlDH [4], the “duration … over 72-hour time course (in words)” value is “significantly elevated even at 48 hours” and the “time at which blood AcH elevation reached maximum” value is “around 5 hours”.
Consider `CC(C)C[C@H](NC(=O)[C@@H]1CCC(=O)N1)C(=O)NC#N` [Compound 14, L-Pyroglutamyl-L-leucylcyanamide], for which the “potency” value in the data set on AlDH [1] was “not nearly as potent as the other prodrugs”.
For `CCCCCCCCCCCCCCCCCC(=O)NC#N` [Compound 7, Stearoylcyanamide], in the data set on AlDH [1], the “potency” value was “almost as potent as cyanamide” and the “elevation of blood AcH over controls at 16 hours” value was “more than 50 fold”. In the data set on AlDH [4], the “duration … over 72-hour time course (in words)” value is listed as “gradually fell” and the “time at which blood AcH elevation reached maximum” value is given as “around 5 hours”.
For `[Ca+2].[N-]=C=[N-]` [calcium carbimide], in data set [5], the duration of activity entry was “approximately 24 hours”.
Regarding `CCCC(=O)NC#N` [Compound 5, n-Butyrylcyanamide], the stability on standing entry in data set [6] was “decomposes on standing even at 5 °C after prolonged periods”. In the data set on AlDH [1], the “potency” value is “even more potent than cyanamide itself”, the “duration of action / blood AcH” value is reported as “short-acting”, the “elevation of blood AcH over drug-free controls at 3 hours” value turned out to be 170 fold and the “elevation of blood AcH over controls at 16 hours” value is reported as “approximately 20 fold”.
Consider `N#CN` [Cyanamide, cyanamide], for which, in data set [7], the “administered cyanamide eliminated as acetylcyanamide in the urine” value is “At least 94%”. Also, the “AlDH inhibitory activity in vitro” value in data set [2] (listed as cyanamide) was “devoid of AlDH inhibitory activity in vitro”. The “AlDH inhibitory activity in vitro” value in data set [2] is given as “does not inhibit AlDH”. For the same compound, in the data set with AlDH [1], the “elevation of blood AcH over drug-free controls at 3 hours” value turned out to be 150 fold and the “elevation of blood AcH over controls at 16 hours” value was “more than 25 fold”. In the data set with AlDH [4], the “duration … over 72-hour time course (in words)” value is reported as “fell rapidly almost to control values at 36 hours” and the “time at which blood AcH elevation reached maximum” value was ≤ 2 h.
For the compound `N#CNC(=O)[C@@H]1CCC(=O)N1C(=O)OCc1ccccc1` [Compound 13, N-Cbz-L-pyroglutamylcyanamide], the “potency” value in the data set with AlDH [1] was “not nearly as potent as the other prodrugs”.
On to `N#CNC(=O)OCc1ccccc1.[Na]` [Compound 8, N-Carbobenzoxycyanamide, Sodium Salt], for which the “elevation of blood AcH over drug-free controls at 3 hours” value in the data set on AlDH [1] is listed as 120 fold.
`N#CNC(=O)CNC(=O)OCc1ccccc1` [Compound 9, N-Carbobenzoxyglycylcyanamide]: in the data set on AlDH [1], the “duration of action / blood AcH” value is on record as “reduced to almost control levels” and the “elevation of blood AcH over drug-free controls at 3 hours” value is given as “more than 80 fold”.
With `N#CNC(=O)C12CC3CC(CC(C3)C1)C2.N#CNC(=O)C12CC3CC(CC(C3)C1)C2` [Compound 4, 1-Adamantanecarbonyl Cyanamide (1-Adamantoylcyanamide)], in the data set with AlDH [1], the “potency” value is “very potent” and the “duration of action / blood AcH” value is on record as “short acting”.
On to `CC(C)C[C@H](NC(=O)CNC(=O)OCc1ccccc1)C(=O)NC#N` [Compound 12, N-Cbz-glycyl-L-leucylcyanamide], for which, in the data set with AlDH [1], the “potency” value is “more potent than (9)” and the “duration of action / blood AcH” value was “did not maintain significantly elevated blood AcH level”.
